Laboratory results from ChEMBL document CHEMBL5303573, “Mapping human microbiome drug metabolism by gut bacteria and their genes” (Nature, 2019).

Legend:
[1] = The drug is tested on Dorea formicigenerans strain: ATCC27755 for biotransformation. The drug concentrations were measured before and after a 12-h incubation by liquid-chromatography-coupled mass spectrometry (LC–MS); settings: 2 µM
[2] = parabacteroides johnsonii, 12 h, 2 µM
[3] = The drug is tested on Coprococcus comes strain: ATCC27758 for biotransformation. The drug concentrations were measured before and after a 12-h incubation by liquid-chromatography-coupled mass spectrometry (LC–MS); format: ADME; set-up: dose 2 uM, timepoint 0 vs 12 hours; settings: 2 µM
[4] = The drug is tested on Bacteroides xylanisolvens strain: DSM18836 for biotransformation. The drug concentrations were measured before and after a 12-h incubation by liquid-chromatography-coupled mass spectrometry (LC–MS); settings: 2 µM
[5] = enterocloster bolteae, 12 h, 2 µM
[6] = parabacteroides distasonis, 12 h, 2 µM
[7] = The drug is tested on Bacteroides fragilis strain: HMW615 for biotransformation. The drug concentrations were measured before and after a 12-h incubation by liquid-chromatography-coupled mass spectrometry (LC–MS); settings: 2 µM
[8] = akkermansia muciniphila, 12 h, 2 µM
[9] = The drug is tested on Edwardsiella tarda strain: ATCC23685 for biotransformation. The drug concentrations were measured before and after a 12-h incubation by liquid-chromatography-coupled mass spectrometry (LC–MS); settings: 2 µM
[10] = The drug is tested on Providencia stuartii strain: ATCC25827 for biotransformation. The drug concentrations were measured before and after a 12-h incubation by liquid-chromatography-coupled mass spectrometry (LC–MS); settings: 2 µM
[11] = bacteroides intestinalis, 12 h, 2 µM
[12] = The drug is tested on Enterobacter cancerogenus strain: ATCC35316 for biotransformation. The drug concentrations were measured before and after a 12-h incubation by liquid-chromatography-coupled mass spectrometry (LC–MS); settings: 2 µM
[13] = The drug is tested on Bacteroides coprophilus strain: DSM18228 for biotransformation. The drug concentrations were measured before and after a 12-h incubation by liquid-chromatography-coupled mass spectrometry (LC–MS); settings: 2 µM
[14] = The drug is tested on Blautia hansenii strain: DSM20583 for biotransformation. The drug concentrations were measured before and after a 12-h incubation by liquid-chromatography-coupled mass spectrometry (LC–MS); settings: 2 µM
[15] = The drug is tested on Ruminococcus gnavus strain: ATCC29149 for biotransformation. The drug concentrations were measured before and after a 12-h incubation by liquid-chromatography-coupled mass spectrometry (LC–MS); settings: mediterraneibacter gnavus, 2 µM
[16] = The drug is tested on Bacteroides cellulosilyticus strain: DSM14838 for biotransformation. The drug concentrations were measured before and after a 12-h incubation by liquid-chromatography-coupled mass spectrometry (LC–MS); settings: 2 µM
[17] = The drug is tested on Bacteroides fragilis strain: HMW610 for biotransformation. The drug concentrations were measured before and after a 12-h incubation by liquid-chromatography-coupled mass spectrometry (LC–MS); settings: 2 µM
[18] = The drug is tested on Bacteroides pectinophilus strain: ATCC43243 for biotransformation. The drug concentrations were measured before and after a 12-h incubation by liquid-chromatography-coupled mass spectrometry (LC–MS); settings: 2 µM
[19] = bacteroides stercoris, 12 h, 2 µM
[20] = The drug is tested on Bacteroides vulgatus strain: ATCC8482 for biotransformation. The drug concentrations were measured before and after a 12-h incubation by liquid-chromatography-coupled mass spectrometry (LC–MS); settings: phocaeicola vulgatus, 2 µM

SMILES | Bacterial Biotransformation [1] | Bacterial Biotransformation [2] | Bacterial Biotransformation [3] | Bacterial Biotransformation [4] | Bacterial Biotransformation [5] | Bacterial Biotransformation [6] | Bacterial Biotransformation [7] | Bacterial Biotransformation [8] | Bacterial Biotransformation [9] | Bacterial Biotransformation [10] | Bacterial Biotransformation [11] | Bacterial Biotransformation [12] | Bacterial Biotransformation [13] | Bacterial Biotransformation [14] | Bacterial Biotransformation [15] | Bacterial Biotransformation [16] | Bacterial Biotransformation [17] | Bacterial Biotransformation [18] | Bacterial Biotransformation [19] | Bacterial Biotransformation [20]
CC(O)(CS(=O)(=O)c1ccc(F)cc1)C(=O)Nc1ccc(C#N)c(C(F)(F)F)c1 (stereo not given) [BICALUTAMIDE] | Compound NOT metabolized | Compound NOT metabolized | Compound NOT metabolized | Compound NOT metabolized | Compound NOT metabolized | Compound metabolized | Compound metabolized | Compound NOT metabolized | Compound NOT metabolized | Compound NOT metabolized | Compound NOT metabolized | Compound metabolized | Compound NOT metabolized | Compound NOT metabolized | Compound NOT metabolized | Compound NOT metabolized | Compound metabolized | Compound NOT metabolized | Compound NOT metabolized | 
COc1cc2nc(N3CCN(C(=O)c4ccco4)CC3)nc(N)c2cc1OC [PRAZOSIN] | Compound NOT metabolized | Compound NOT metabolized | Compound NOT metabolized | Compound NOT metabolized | Compound NOT metabolized | Compound NOT metabolized | Compound NOT metabolized | Compound NOT metabolized | Compound NOT metabolized | Compound NOT metabolized | Compound NOT metabolized | Compound NOT metabolized | Compound NOT metabolized | Compound NOT metabolized |  | Compound NOT metabolized | Compound NOT metabolized | Compound NOT metabolized | Compound NOT metabolized | 
COc1ccccc1OCC(O)CN1CCN(CC(=O)Nc2c(C)cccc2C)CC1 (stereo not given) [RANOLAZINE] | Compound NOT metabolized | Compound NOT metabolized | Compound NOT metabolized | Compound NOT metabolized | Compound NOT metabolized | Compound NOT metabolized | Compound NOT metabolized |  | Compound NOT metabolized | Compound NOT metabolized | Compound NOT metabolized | Compound NOT metabolized | Compound NOT metabolized | Compound NOT metabolized | Compound NOT metabolized | Compound NOT metabolized | Compound NOT metabolized | Compound NOT metabolized | Compound NOT metabolized | Compound NOT metabolized
CC(N)C12CC3CC(CC(C3)C1)C2 (stereo not given) [RIMANTADINE] | Compound NOT metabolized | Compound NOT metabolized | Compound NOT metabolized | Compound NOT metabolized | Compound NOT metabolized | Compound NOT metabolized | Compound NOT metabolized |  | Compound NOT metabolized | Compound NOT metabolized | Compound NOT metabolized | Compound NOT metabolized | Compound NOT metabolized | Compound NOT metabolized | Compound NOT metabolized | Compound NOT metabolized | Compound NOT metabolized | Compound NOT metabolized | Compound NOT metabolized | 
Cc1ccc(S(=O)(=O)NC(=O)NN2CCCCCC2)cc1 [TOLAZAMIDE] | Compound NOT metabolized | Compound metabolized | Compound NOT metabolized | Compound metabolized | Compound NOT metabolized | Compound metabolized | Compound metabolized |  | Compound NOT metabolized |  | Compound NOT metabolized | Compound NOT metabolized | Compound metabolized | Compound metabolized | Compound NOT metabolized | Compound metabolized | Compound metabolized | Compound metabolized | Compound metabolized | Compound metabolized
CC[C@@]1(O)C(=O)OCc2c1cc1n(c2=O)Cc2cc3c(CN(C)C)c(O)ccc3nc2-1 [TOPOTECAN] | Compound NOT metabolized | Compound NOT metabolized | Compound NOT metabolized | Compound NOT metabolized | Compound NOT metabolized | Compound NOT metabolized | Compound NOT metabolized | Compound NOT metabolized | Compound NOT metabolized |  | Compound NOT metabolized | Compound NOT metabolized | Compound NOT metabolized | Compound NOT metabolized | Compound NOT metabolized | Compound NOT metabolized | Compound NOT metabolized |  | Compound NOT metabolized | Compound NOT metabolized
